# Species: Rattus norvegicus
# Assay: DrugMatrix - Regimen: Daily Repeat
# Assay type: toxicity, organism-based, Sprague-Dawley
# Design: regimen Daily Repeat, gender Male, age 6-8 weeks
# Conditions: in vivo, iv, vehicle 100 % SALINE; for ABSOLUTE BASOPHIL / ABSOLUTE EOSINOPHIL / ABSOLUTE LYMPHOCYTE / ABSOLUTE MONOCYTE / ABSOLUTE SEGMENTED NEUTROPHIL / BASOPHIL / EOSINOPHIL / ERYTHROCYTE COUNT / HEMATOCRIT / HEMOGLOBIN / LEUKOCYTE COUNT / LYMPHOCYTE / MEAN CORPUSCULAR HEMOGLOBIN / MEAN CORPUSCULAR HEMOGLOBIN CONCENTRATION / MEAN CORPUSCULAR VOLUME / MONOCYTE / NEUTROPHIL / NUCLEATED RED BLOOD CELLS / PLATELET COUNT: tissue Blood; for ALANINE AMINOTRANSFERASE / ALBUMIN / ALKALINE PHOSPHATASE / ASPARTATE AMINOTRANSFERASE / BLOOD UREA NITROGEN / CARBON DIOXIDE / CHLORIDE / CHOLESTEROL / CREATINE PHOSPHOKINASE / CREATININE / GLUCOSE / LACTATE DEHYDROGENASE / LIPASE / PHOSPHORUS / POTASSIUM / SODIUM / TOTAL BILIRUBIN / TOTAL PROTEIN / URIC ACID: tissue Plasma
# [1] = 100 mg/kg, 72 h, dose level Low, time 3 day
# [2] = 100 mg/kg, 120 h, dose level Low, time 5 day
# [3] = 1000 mg/kg, 72 h, dose level High, time 3 day
# [4] = 1000 mg/kg, 120 h, dose level High, time 5 day
compound,measurement,setting,value
OC[C@@H](O)[C@@H](O)[C@H](O)[C@H](O)CO [MANNITOL],ABSOLUTE BASOPHIL,[1],0 CELLS/uL
same,ABSOLUTE EOSINOPHIL,[1],269 CELLS/uL
same,ABSOLUTE LYMPHOCYTE,[1],11772.67 CELLS/uL
same,ABSOLUTE MONOCYTE,[1],286.33 CELLS/uL
same,ABSOLUTE SEGMENTED NEUTROPHIL,[1],638.67 CELLS/uL
same,BASOPHIL,[1],0%
same,EOSINOPHIL,[1],2%
same,ERYTHROCYTE COUNT,[1],5.91 x10E6/uL
same,HEMATOCRIT,[1],37.23%
same,HEMOGLOBIN,[1],13.83 G/DL
same,LEUKOCYTE COUNT,[1],12.97 x10E3/uL
same,LYMPHOCYTE,[1],90.67%
same,MEAN CORPUSCULAR HEMOGLOBIN,[1],23.43 pg
same,MEAN CORPUSCULAR HEMOGLOBIN CONCENTRATION,[1],37.1 G/DL
same,MEAN CORPUSCULAR VOLUME,[1],62.97 fL
same,MONOCYTE,[1],2.33%
same,NEUTROPHIL,[1],5%
same,NUCLEATED RED BLOOD CELLS,[1],0 /100WBC
same,PLATELET COUNT,[1],1250.33 x10E3/uL
same,ALANINE AMINOTRANSFERASE,[1],48.67 u/L
same,ALBUMIN,[1],4.13 G/DL
same,ALKALINE PHOSPHATASE,[1],350 u/L
same,ASPARTATE AMINOTRANSFERASE,[1],97.33 u/L
same,BLOOD UREA NITROGEN,[1],16.33 mg/dL
same,CARBON DIOXIDE,[1],24.67 mmol/L
same,CHLORIDE,[1],104 MEQ/L
same,CHOLESTEROL,[1],77.67 mg/dL
same,CREATINE PHOSPHOKINASE,[1],393.67 u/L
same,CREATININE,[1],0.2 mg/dL
same,GLUCOSE,[1],160.33 mg/dL
same,LACTATE DEHYDROGENASE,[1],480.67 u/L
same,LIPASE,[1],8.67 u/L
same,PHOSPHORUS,[1],13.8 mg/dL
same,POTASSIUM,[1],6.9 MEQ/L
same,SODIUM,[1],146.1 MEQ/L
same,TOTAL BILIRUBIN,[1],0.2 mg/dL
same,TOTAL PROTEIN,[1],5.93 G/DL
same,URIC ACID,[1],1.7 mg/dL
same,ABSOLUTE BASOPHIL,[2],0 CELLS/uL
same,ABSOLUTE EOSINOPHIL,[2],0 CELLS/uL
same,ABSOLUTE LYMPHOCYTE,[2],12262.33 CELLS/uL
same,ABSOLUTE MONOCYTE,[2],402.33 CELLS/uL
same,ABSOLUTE SEGMENTED NEUTROPHIL,[2],1202 CELLS/uL
same,BASOPHIL,[2],0%
same,EOSINOPHIL,[2],0%
same,ERYTHROCYTE COUNT,[2],5.62 x10E6/uL
same,HEMATOCRIT,[2],34.87%
same,HEMOGLOBIN,[2],12.8 G/DL
same,LEUKOCYTE COUNT,[2],13.87 x10E3/uL
same,LYMPHOCYTE,[2],88.33%
same,MEAN CORPUSCULAR HEMOGLOBIN,[2],22.77 pg
same,MEAN CORPUSCULAR HEMOGLOBIN CONCENTRATION,[2],36.73 G/DL
same,MEAN CORPUSCULAR VOLUME,[2],62 fL
same,MONOCYTE,[2],3%
same,NEUTROPHIL,[2],8.67%
same,NUCLEATED RED BLOOD CELLS,[2],0 /100WBC
same,PLATELET COUNT,[2],1182.33 x10E3/uL
same,ALANINE AMINOTRANSFERASE,[2],73.33 u/L
same,ALBUMIN,[2],4.27 G/DL
same,ALKALINE PHOSPHATASE,[2],396 u/L
same,ASPARTATE AMINOTRANSFERASE,[2],130.33 u/L
same,BLOOD UREA NITROGEN,[2],17.67 mg/dL
same,CARBON DIOXIDE,[2],21.67 mmol/L
same,CHLORIDE,[2],110.67 MEQ/L
same,CHOLESTEROL,[2],83 mg/dL
same,CREATINE PHOSPHOKINASE,[2],1094.67 u/L
same,CREATININE,[2],0.15 mg/dL
same,GLUCOSE,[2],196.33 mg/dL
same,LACTATE DEHYDROGENASE,[2],396.67 u/L
same,LIPASE,[2],9.67 u/L
same,PHOSPHORUS,[2],14.1 mg/dL
same,POTASSIUM,[2],6.09 MEQ/L
same,SODIUM,[2],148.6 MEQ/L
same,TOTAL BILIRUBIN,[2],0.13 mg/dL
same,TOTAL PROTEIN,[2],5.73 G/DL
same,URIC ACID,[2],2.53 mg/dL
same,ABSOLUTE BASOPHIL,[3],0 CELLS/uL
same,ABSOLUTE EOSINOPHIL,[3],168 CELLS/uL
same,ABSOLUTE LYMPHOCYTE,[3],12528 CELLS/uL
same,ABSOLUTE MONOCYTE,[3],421 CELLS/uL
same,ABSOLUTE SEGMENTED NEUTROPHIL,[3],916.33 CELLS/uL
same,BASOPHIL,[3],0%
same,EOSINOPHIL,[3],1.33%
same,ERYTHROCYTE COUNT,[3],5.26 x10E6/uL
same,HEMATOCRIT,[3],34.8%
same,HEMOGLOBIN,[3],13.1 G/DL
same,LEUKOCYTE COUNT,[3],14.03 x10E3/uL
same,LYMPHOCYTE,[3],89%
same,MEAN CORPUSCULAR HEMOGLOBIN,[3],24.9 pg
same,MEAN CORPUSCULAR HEMOGLOBIN CONCENTRATION,[3],37.7 G/DL
same,MEAN CORPUSCULAR VOLUME,[3],66.13 fL
same,MONOCYTE,[3],3%
same,NEUTROPHIL,[3],6.67%
same,NUCLEATED RED BLOOD CELLS,[3],0 /100WBC
same,PLATELET COUNT,[3],1218.33 x10E3/uL
same,ALANINE AMINOTRANSFERASE,[3],45 u/L
same,ALBUMIN,[3],4.1 G/DL
same,ALKALINE PHOSPHATASE,[3],339.33 u/L
same,ASPARTATE AMINOTRANSFERASE,[3],74.33 u/L
same,BLOOD UREA NITROGEN,[3],14.67 mg/dL
same,CARBON DIOXIDE,[3],21.67 mmol/L
same,CHLORIDE,[3],105 MEQ/L
same,CHOLESTEROL,[3],68.33 mg/dL
same,CREATINE PHOSPHOKINASE,[3],402.67 u/L
same,CREATININE,[3],0.13 mg/dL
same,GLUCOSE,[3],181.67 mg/dL
same,LACTATE DEHYDROGENASE,[3],239.67 u/L
same,LIPASE,[3],9.33 u/L
same,PHOSPHORUS,[3],14.13 mg/dL
same,POTASSIUM,[3],6.11 MEQ/L
same,SODIUM,[3],145 MEQ/L
same,TOTAL BILIRUBIN,[3],0.23 mg/dL
same,TOTAL PROTEIN,[3],5.93 G/DL
same,URIC ACID,[3],1.77 mg/dL
same,ABSOLUTE BASOPHIL,[4],0 CELLS/uL
same,ABSOLUTE EOSINOPHIL,[4],45 CELLS/uL
same,ABSOLUTE LYMPHOCYTE,[4],12203.33 CELLS/uL
same,ABSOLUTE MONOCYTE,[4],139 CELLS/uL
same,ABSOLUTE SEGMENTED NEUTROPHIL,[4],779.33 CELLS/uL
same,BASOPHIL,[4],0%
same,EOSINOPHIL,[4],0.33%
same,ERYTHROCYTE COUNT,[4],5.59 x10E6/uL
same,HEMATOCRIT,[4],35.07%
same,HEMOGLOBIN,[4],13.4 G/DL
same,LEUKOCYTE COUNT,[4],13.17 x10E3/uL
same,LYMPHOCYTE,[4],92.67%
same,MEAN CORPUSCULAR HEMOGLOBIN,[4],23.97 pg
same,MEAN CORPUSCULAR HEMOGLOBIN CONCENTRATION,[4],38.27 G/DL
same,MEAN CORPUSCULAR VOLUME,[4],62.67 fL
same,MONOCYTE,[4],1%
same,NEUTROPHIL,[4],6%
same,NUCLEATED RED BLOOD CELLS,[4],0 /100WBC
same,PLATELET COUNT,[4],1310 x10E3/uL
same,ALANINE AMINOTRANSFERASE,[4],39 u/L
same,ALBUMIN,[4],4.3 G/DL
same,ALKALINE PHOSPHATASE,[4],331.67 u/L
same,ASPARTATE AMINOTRANSFERASE,[4],64.67 u/L
same,BLOOD UREA NITROGEN,[4],17.33 mg/dL
same,CARBON DIOXIDE,[4],25.67 mmol/L
same,CHLORIDE,[4],109.67 MEQ/L
same,CHOLESTEROL,[4],67.67 mg/dL
same,CREATINE PHOSPHOKINASE,[4],165.33 u/L
same,CREATININE,[4],0.19 mg/dL
same,GLUCOSE,[4],172.33 mg/dL
same,LACTATE DEHYDROGENASE,[4],106.33 u/L
same,LIPASE,[4],8.67 u/L
same,PHOSPHORUS,[4],12.67 mg/dL
same,POTASSIUM,[4],6.4 MEQ/L
same,SODIUM,[4],148.93 MEQ/L
same,TOTAL BILIRUBIN,[4],0.2 mg/dL
same,TOTAL PROTEIN,[4],6.3 G/DL
same,URIC ACID,[4],1.67 mg/dL

# From ChEMBL document CHEMBL3885881, “DrugMatrix”
